# Test system: skin
# Assay: Affymetrix microarray of skin, DBP-4 hr and analogs vs. untreated; gene selection by log-2 fold change, Wilcoxon, Kendall tau (Tables 8, 9)
# Format: in vivo, mouse
# Conditions: for Wilcoxon: DBP-4 hr vs. untreated, selected by p-value; for Kendall: selected by Kendall tau, expression vs. output
# [1] = gene 1500032L24Rik NM_026914_at
# [2] = gene 2210016L21Rik NM_028211_at
# [3] = gene 4931408A02Rik NM_027627_at
# [4] = gene 4933407C03Rik NM_028941_at
# [5] = gene 5730494N06Rik NM_027478_at
smiles,measurement,setting,value
"CCCCOC(=O)c1ccccc1C(=O)OCCCC [DBP, dibutylphthalate]",Wilcoxon,[1],No
same,Kendall,[1],Yes
same,Wilcoxon,[2],No
same,Kendall,[2],Yes
same,Wilcoxon,[3],No
same,Kendall,[3],Yes
same,Wilcoxon,[4],No
same,Kendall,[4],Yes
same,Wilcoxon,[5],No
same,Kendall,[5],Yes
same,Wilcoxon,gene Ankrd24 NM_027480_at,No
same,Kendall,gene Ankrd24 NM_027480_at,Yes
same,Wilcoxon,gene Cby1 NM_028634_at,No
same,Kendall,gene Cby1 NM_028634_at,Yes
same,Wilcoxon,gene Ccdc123 NM_028120_at,No
same,Kendall,gene Ccdc123 NM_028120_at,Yes
same,Wilcoxon,gene Cdc42ep1 NM_027219_at,No
same,Kendall,gene Cdc42ep1 NM_027219_at,Yes
same,Wilcoxon,gene Cdca4 NM_028023_at,No
same,Kendall,gene Cdca4 NM_028023_at,Yes
same,Wilcoxon,gene Cenpv NM_028448_at,No
same,Kendall,gene Cenpv NM_028448_at,Yes
same,Wilcoxon,gene Chst14 NM_028117_at,No
same,Kendall,gene Chst14 NM_028117_at,Yes
same,Wilcoxon,gene Cnot8 NM_026949_at,No
same,Kendall,gene Cnot8 NM_026949_at,Yes
same,Wilcoxon,gene Ebpl NM_026598_at,No
same,Kendall,gene Ebpl NM_026598_at,Yes
same,Wilcoxon,gene Ict1 NM_026729_at,No
same,Kendall,gene Ict1 NM_026729_at,Yes
same,Wilcoxon,gene Ift80 NM_026641_at,No
same,Kendall,gene Ift80 NM_026641_at,Yes
same,Wilcoxon,gene Lrrfip2 NM_027742_at,No
same,Kendall,gene Lrrfip2 NM_027742_at,Yes
same,Wilcoxon,gene Med23 NM_027347_at,No
same,Kendall,gene Med23 NM_027347_at,Yes
same,Wilcoxon,gene Mlh1 NM_026810_at,No
same,Kendall,gene Mlh1 NM_026810_at,Yes
same,Wilcoxon,gene Mterfd3 NM_028832_at,No
same,Kendall,gene Mterfd3 NM_028832_at,Yes
same,Wilcoxon,gene Rnf135 NM_028019_at,No
same,Kendall,gene Rnf135 NM_028019_at,Yes
same,Wilcoxon,gene Rnf157 NM_027258_at,No
same,Kendall,gene Rnf157 NM_027258_at,Yes
same,Wilcoxon,gene Rrp1b NM_028244_at,No
same,Kendall,gene Rrp1b NM_028244_at,Yes
same,Wilcoxon,gene Slc25a35 NM_028048_at,No
same,Kendall,gene Slc25a35 NM_028048_at,Yes
same,Wilcoxon,gene Tmem55a NM_028264_at,No
same,Kendall,gene Tmem55a NM_028264_at,Yes
same,Wilcoxon,gene Tmem80 NM_027797_at,No
same,Kendall,gene Tmem80 NM_027797_at,Yes
same,Wilcoxon,gene Tmtc4 NM_028651_at,No
same,Kendall,gene Tmtc4 NM_028651_at,Yes
same,Wilcoxon,gene Zfyve21 NM_026752_at,No
same,Kendall,gene Zfyve21 NM_026752_at,Yes
